In patent US20040229791A1, “Compositions and methods of modulating TGF-beta activity by fatty acids” (priority 2002, published 2004):

Legend:
[1] = test system: TGF-β receptors in Mv1Lu cells; assay: Binding of 125I-TGF-β2 to Mv1Lu cells in the presence of α2M*; format: cell-based, mink; details: 30 μM arachidonic acid, 200 μg/ml α2M*
Description: The levels of TGF ? β and ? 2M* also increase dramatically. α2M* is capable of inhibiting TGF- ? activity by forming complexes with TGF- ? and thus preventing it from binding to TGF ? β receptors in cells involved. Fatty acids may potentiate TGF ? β activity by blocking complex formation of ? 2M* and TGF ? β under these conditions. To test this possibility, we determined the effects of arachidonic acid on ^125I-TGF- ? 2 binding (in the presence and absence of α2M*) to Mv1Lu cells. ? 2M* is known to inhibit TGF- ? 2 more strongly than TGF ? β1 binding to T receptors in cells (13). Various concentrations of ^125I-TGF- ? 2 were preincubated with 200 μg/ml of ? 2M* in the presence or absence of 30 μM arachidonic acid for 30 min prior to the performance of binding assays in Mv1Lu cells. […] The residual ^125I-TGF- ? binding associated with the cells after ? 2M* inhibition was mainly due to non-specific binding of ^125I-TGF- ? 2. […] In the presence of 200 μg/ml of ? 2M*, the dose-response curve of TGF ? β2 shifted to the right. […] Addition of arachidonic acid at 0.5 and 1 μM reversed the inhibitory effect of. α2M* on TGF- ? 2-induced growth inhibition as measured by [methyl-^3H]-thymidine incorporation.
Binding of ^125I-TGF- ? […] After 2.5 hr at 0° C., the cells were washed with binding buffer, and the cell-associated radioactivity was determined. […]

[2] = molecular target: T1, α2M* and nerve growth factor (NGF) (Homo sapiens, UniProt P01023); assay: Complex formation between α2M* and nerve growth factor; format: binding
T1 sequence (P01023 24-1474): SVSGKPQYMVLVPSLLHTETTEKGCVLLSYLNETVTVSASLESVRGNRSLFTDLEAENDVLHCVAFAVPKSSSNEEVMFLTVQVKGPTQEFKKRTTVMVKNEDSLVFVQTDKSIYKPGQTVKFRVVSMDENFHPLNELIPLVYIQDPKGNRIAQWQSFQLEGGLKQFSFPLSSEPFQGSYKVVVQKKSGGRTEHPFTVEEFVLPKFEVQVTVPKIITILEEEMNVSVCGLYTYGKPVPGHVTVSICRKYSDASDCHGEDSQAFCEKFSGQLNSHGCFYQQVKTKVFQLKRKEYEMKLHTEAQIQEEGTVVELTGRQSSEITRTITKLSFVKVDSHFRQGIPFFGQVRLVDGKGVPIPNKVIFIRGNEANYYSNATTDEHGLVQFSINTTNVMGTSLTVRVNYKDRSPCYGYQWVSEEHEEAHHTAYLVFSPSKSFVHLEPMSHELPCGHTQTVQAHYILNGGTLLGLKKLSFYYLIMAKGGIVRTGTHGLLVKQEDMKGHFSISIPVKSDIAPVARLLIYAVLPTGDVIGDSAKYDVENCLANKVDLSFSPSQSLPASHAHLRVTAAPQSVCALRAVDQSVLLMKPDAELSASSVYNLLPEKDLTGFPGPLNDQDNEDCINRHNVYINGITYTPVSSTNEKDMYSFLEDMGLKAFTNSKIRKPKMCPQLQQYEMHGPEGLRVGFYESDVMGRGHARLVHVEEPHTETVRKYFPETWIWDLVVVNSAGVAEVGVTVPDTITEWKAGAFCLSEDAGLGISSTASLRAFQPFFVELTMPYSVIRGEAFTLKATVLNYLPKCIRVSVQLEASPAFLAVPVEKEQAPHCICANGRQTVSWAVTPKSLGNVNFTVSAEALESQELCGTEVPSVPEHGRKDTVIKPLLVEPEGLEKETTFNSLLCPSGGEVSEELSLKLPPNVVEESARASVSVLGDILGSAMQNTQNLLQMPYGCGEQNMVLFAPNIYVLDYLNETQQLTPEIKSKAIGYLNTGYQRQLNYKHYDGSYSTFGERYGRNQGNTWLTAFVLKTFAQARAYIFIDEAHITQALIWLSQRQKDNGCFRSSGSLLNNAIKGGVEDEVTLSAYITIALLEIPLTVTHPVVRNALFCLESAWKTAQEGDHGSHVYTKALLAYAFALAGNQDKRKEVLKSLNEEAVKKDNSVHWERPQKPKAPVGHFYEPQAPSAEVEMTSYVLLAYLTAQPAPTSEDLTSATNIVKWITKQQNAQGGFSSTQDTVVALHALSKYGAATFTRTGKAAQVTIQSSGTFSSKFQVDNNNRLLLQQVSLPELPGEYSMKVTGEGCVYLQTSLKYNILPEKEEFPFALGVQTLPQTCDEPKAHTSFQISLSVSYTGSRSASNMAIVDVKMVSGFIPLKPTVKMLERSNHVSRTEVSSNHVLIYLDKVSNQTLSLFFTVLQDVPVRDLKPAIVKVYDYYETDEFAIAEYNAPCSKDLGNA

In the case of `CCCCC/C=C\C/C=C\C/C=C\C/C=C\CCCC(=O)O` [arachidonic acid], the “reversal of α2M* inhibition of 125I-TGF-β2 binding to Mv1Lu cells” value [1] is reported as “completely reversed” and the “blocking of complex formation between α2M* and NGF” value [2] is reported as “block complex formation”.
